Values after ≈ are worked out from the molar mass of the structure shown.
Key:
Candida albicans = assay: Minimum inhibitory concentration against Candida albicans in Sabouraud dextrose broth by using […]; assay type: functional
Trichophyton benhamiae = assay: Minimum inhibitory concentration against Trichophyton mentagrophytes in Sabouraud dextrose broth by using […]; assay type: functional, Arthroderma benhamiae

| Structure (SMILES) | MIC (Candida albicans) [µg/mL] | MIC (Trichophyton benhamiae) [µg/mL] |
| --- | --- | --- |
| Cc1ccc(-c2nc(=O)[nH]c(=O)s2)cc1 | > 250 | < 2 |
| CC(C)c1nc(=O)[nH]c(=O)s1 | 81 (≈ 470 µM) | 15 (≈ 87.1 µM) |
| O=c1nc(-c2ccc3c(c2)OCO3)sc(=O)[nH]1 | > 250 | 125 (≈ 500 µM) |
| CN(C)c1ccc(-c2nc(=O)[nH]c(=O)s2)cc1 | > 125 | 62 (≈ 249 µM) |
| O=c1nc(Cc2ccc3c(c2)OCO3)sc(=O)[nH]1 | 125 (≈ 473 µM) | 4 (≈ 15.1 µM) |
| O=c1nc(Cc2ccccc2)sc(=O)[nH]1 | 125 (≈ 568 µM) | < 2 |
| O=c1nc(-c2cccs2)sc(=O)[nH]1 | 62 (≈ 292 µM) | 2 (≈ 9.42 µM) |
| COc1ccc(-c2nc(=O)[nH]c(=O)s2)cc1 | 125 (≈ 529 µM) | 8 (≈ 33.9 µM) |

The remaining lines, values ahead:

| MIC (Candida albicans) [µg/mL] | MIC (Trichophyton benhamiae) [µg/mL] | Structure (SMILES) |
| --- | --- | --- |
| 62 (≈ 280 µM) | 8 (≈ 36.2 µM) | O=c1nc(Cc2cccnc2)sc(=O)[nH]1 |
| 1 (≈ 3.27 µM) | 4 (≈ 13.1 µM) | Oc1c(I)cc(Cl)c2cccnc12 [CLIOQUINOL] |
| 8 (≈ 38.8 µM) | < 2 | O=c1nc(-c2ccccc2)sc(=O)[nH]1 |
| 31 (≈ 125 µM) | < 2 | CC(=O)c1ccc(-c2nc(=O)[nH]c(=O)s2)cc1 |
| 15 (≈ 62.3 µM) | 4 (≈ 16.6 µM) | O=c1nc(-c2ccc(Cl)cc2)sc(=O)[nH]1 |
| 15 (≈ 76.5 µM) | < 2 | O=c1nc(-c2ccco2)sc(=O)[nH]1 |
